In patent US20050004084A1, “Aspirin-containing trasdermal pharmaceutical composition for the treatment of calcification” (priority 2001, published 2005):

Experiments:
[1] = Examination of the metabolism of acetylsalicylic acid: ASA and SA in plasma by HPLC after gel applied onto skin; assay type: in vivo, New Zealand giant white rabbits; settings: for concentration at 0 h / concentration at 0.25 h / concentration at 0.5 h / concentration at 0.75 h / concentration at 0.75 hour / concentration at 1 h / concentration at 1.5 h / concentration at 2 h / concentration at 3 h / concentration at 4 h: pH 6.5, Salicylic acid and acetysalicylic acid contents of blood samples
Description: The tests were performed on 6 week old male New Zealand giant white rabbits. […] The hair was shaved off from the backs of the rabbits, and 0.6 g of a gel with the following composition was applied onto the skin:
Blood samples were taken periodically as indicated in Table 1 from the jugular veins of the animals, the samples were centrifuged to separate the plasma, and the acetylsalicylic acid (ASA) and salicylic acid (SA) contents of the samples were measured by HPLC. The centrifuged plasma was stored at −22° C. until the time of analysis in order to avoid any ex vivo metabolism due to the presence of esterases in the plasma.
The above test was repeated on the same animals with the difference that 0.01 g of sodium carbonate was also added to the gel and the gel was buffered to pH 6.5.

[2] = Urine analyses on rabbits kept on specific calcium-rich diet; assay type: in vivo
Description: From the data of Table 2 it appears that the amount of acetylsalicylic acid present in the blood of the animals stabilized after a short induction period. […] This test was performed on healthy animals, where no dissolution of calcification and no formation of calcium acetylsalicylate due to the dissolution took place.

[3] = male, New Zealand giant white, rabbit, in vivo
[4] = male, New Zealand giant white, rabbit, in vivo, 0 h, pH 6.5
[5] = male, New Zealand giant white, rabbit, in vivo, 0.75 h, pH 6.5
[6] = male, New Zealand giant white, rabbit, in vivo, 0.75 hour, pH 6.5
[7] = male, New Zealand giant white, rabbit, in vivo, Salicylic acid and acetysalicylic acid contents of blood samples

Row | Salicylic acid and acetysalicylic acid contents of blood samples [1, 4] | Salicylic acid and acetysalicylic acid contents of blood samples [1, 5] | Salicylic acid and acetysalicylic acid contents of blood samples [1, 6] | concentration at 0.75 hours [1, 7] | concentration at 0 h [1, 3] | concentration at 0.25 h [1, 3] | concentration at 0.5 h [1, 3] | concentration at 0.75 h [1, 3] | concentration at 0.75 hour [1, 3] | concentration at 1 h [1, 3] | concentration at 1.5 h [1, 3] | concentration at 2 h [1, 3] | concentration at 3 h [1, 3] | concentration at 4 h [1, 3] | Compound | other results
1 | 0 μg/ml of plasma | 9.68 μg/ml of plasma | 8.84 μg/ml of plasma | 115 ng/mL | 0 ng/mL | 570 ng/mL | 5240 ng/mL | 9440 ng/mL | 7900 ng/mL | 7700 ng/mL | 7120 ng/mL | 6980 ng/mL | 5650 ng/mL | 4550 ng/mL | CC(=O)Oc1ccccc1C(=O)O [ASA, acetylsalicylic acid] | time within which acetylsalicylic acid metabolizes in the body to salicylic acid and acetic acid [1, 3]: ≤ 15 min; Salicylic acid and acetysalicylic acid contents of blood samples ([1]; male, New Zealand giant white, rabbit, in vivo, 0 hours): 0 μg/ml of plasma; Salicylic acid and acetysalicylic acid contents of blood samples ([1]; male, New Zealand giant white, rabbit, in vivo, 1.75 hours): 0.136 μg/ml of plasma; acetylsalicylic acid remained un-metabolized ([1]; male, New Zealand giant white, rabbit, in vivo, 4 h, pH 6.5): 25%; concentration at 0 hours [1, 7]: 0 ng/mL; concentration at 1 hours [1, 7]: 98 ng/mL; concentration at 1.75 hours [1, 7]: 76 ng/mL; concentration at 2 hours [1, 7]: 163 ng/mL; Salicylic acid and acetysalicylic acid contents of blood samples ([1]; rabbit, in vivo): BLD; metabolism of acetylsalicylic acid (observation) ([1]; rabbit, in vivo, pH 6.5): extreme slow down in the metabolism; start of metabolism of acetylsalicylic acid ([1]; rabbit, in vivo, pH 6.5): third-fourth hour
2 | – | – | – | – | – | – | – | – | – | – | – | – | – | – | calcium acetylsalicylate | excretion / further metabolism [2]: can no longer be metabolized but is excreted from the organism in unchanged form
3 | 0 μg/ml of plasma | 2.54 μg/ml of plasma | 1.97 μg/ml of plasma | 40800 ng/mL | 0 ng/mL | 900 ng/mL | 980 ng/mL | 2810 ng/mL | 2100 ng/mL | 3020 ng/mL | 2690 ng/mL | 3110 ng/mL | 7980 ng/mL | 12200 ng/mL | O=C(O)c1ccccc1O [SA, salicylic acid] | Salicylic acid and acetysalicylic acid contents of blood samples ([1]; Rabbit 1, 0 hours, 0.6 g gel without carbonate on skin): BLD; Salicylic acid and acetysalicylic acid contents of blood samples ([1]; Rabbit 2, 0 hours, 0.6 g gel without carbonate on skin): BLD; Salicylic acid and acetysalicylic acid contents of blood samples ([1]; Rabbit 3, 0 hours, 0.6 g gel without carbonate on skin): BLD; Salicylic acid and acetysalicylic acid contents of blood samples ([1]; Rabbit 4, 0 hours, 0.6 g gel without carbonate on skin): BLD; salicylic acid content of the blood samples relative to the acetylsalicylic acid content ([1]; gel without carbonate, Table 1): at least one hundredfold
